Experiments:
human GLP-1 receptor = biological target: T1, human GLP-1 receptor (Homo sapiens, UniProt P43220); experiment: Stimulation of human GLP1 receptor stable transgenic cell line CHO-K1/GLP-1R/CRE-luc to produce cAMP (HTRF); format: cell-based; settings: cAMP production, CHO-K1/GLP-1R/CRE-luc cells, 30 minutes incubation, 0.5 mM IBMX
T1 construct: expressed in transfected cells
Source text: I. Determination of the Ability of the Compound of the Present Invention to Stimulate Human GLP1 Receptor Stable Transgenic Cell Lines to Produce cAMP
The purpose of this test example is to determine the ability of the compound to activate the human GLP-1 receptor on the cell surface. The EC50 that stimulates […] after agonism characterizes the compound's ability to activate the human GLP-1 receptor.
The frozen human GLP1 receptor stable transgenic cell line CHO-K1/GLP-1R/CRE-luc was taken from the liquid nitrogen tank, quickly thawed in a 37° C. water bath, resuspended with DMEM/F12 medium, centrifuged, and washed once. The cells were resuspended with the experimental buffer, namely DMEM/F12 medium containing 0.1% casein, and the experimental buffer was used to adjust the cell density. The cells were spread on spread on a 384-well plate at a density of 2500 cells/5 μL/well, and then to each well was added 2.5 μL of buffer-prepared IBMX working solution with a final concentration of IBMX of 0.5 mM, and 2.5 μL of the compound sample with gradient dilution (starting at 1000 nM, 3-fold dilution, 11 concentrations). The plate was centrifuged at 1000 rpm for 1 minute, shaken for 30 seconds to mix well, and incubated at room temperature for 30 minutes. Detection was performed using the Cisbio cAMP—Gs Dynamic kit. cAMP-d2 and Anti-cAMP-Eu^3+-Cryptate were diluted 20-fold with cAMP Lysis & Detection Buffer, respectively, and mixed well. To each well was added 5 μL diluted cAMP-d2 solution, and then added 5 μL diluted Anti-cAMP-Eu3^+-Cryptate solution. The plate was shaken for 30 seconds, and incubated at room temperature for 1 hour in the dark. The signal reading of HTRF was performed using the Biotek Synergy H1 microplate reader with an excitation wavelength of 320 nm and emission wavelengths of 620 nm and 665 nm.
The signal ratio (665 nm/620 nm*10,000) was calculated, and the signal ratio and sample concentration were nonlinearly fitted using a four-parameter equation in GraphPad Prism 6 to obtain the EC50 value.

[1] = tested on: GLP-1R humanized C57BL/6 mice; experiment: Intraperitoneal glucose tolerance (ipGTT) after single administration in GLP-1R humanized mice; format: in vivo; settings: single administration 0.3 mg/kg, glucose 2 g/kg intraperitoneal 1 hour after administration, AUC 0-120 min, versus model control group
Source text: To evaluate the effect of single administration of the compound of the present invention on blood glucose changes in the intraperitoneal glucose tolerance (ipGTT) experiment in GLP-1R humanized C57BL/6 mice.
C57BL/6_hGLP-1R, male, 5-8 weeks; Ultra-clean workbench; Electronic balance; Vitality type blood glucose meter; Glucose.
3.1 On the day before the experiment, the animals were randomly divided according to their weight, with 5 animals per group. All animals were deprived of food overnight and fasted for more than 16 hours from the time of administration.
3.2 0.2 g/mL glucose solution was prepared with pure water and filtered by 0.22 µm filter membrane for use.
3.3 On the testing day, the blood glucose value of each animal was measured successively by tail clipping method before administration, which was recorded as Baseline value;
Blood glucose test method: the mouse was placed in the immobilizer, the tail tip was disinfected with an alcohol cotton ball, then a little tail tip was cut off with scissors, the first drop of blood was discarded, and the second drop of blood was dropped onto the prepared blood glucose test strip to detect the blood glucose value;
3.4 The animals were administered according to animal weight, and the administration time was record for each animal. After 1 hour of administration, the blood glucose value of each animal was measured sequentially, and recorded as the 0 minute blood glucose value;
3.5 Subsequently, according to the weight of the day, the aminals were immediately injected with pure water or glucose solution into the abdominal cavity, with a volume of 10 mL/kg and a glucose dose of 2 g/kg;
3.6 The blood glucose values of each mouse were measured, and the time and data were recorded after 15, 30, 60, 90, and 120 minutes of pure water or glucose solution injection;
The blood glucose (BG)-time curve was drawn, and the area under the blood glucose-time curve was calculated. The calculation formula is as follows: […]
Note: BG0, BG15, BG30, BG60, BG90, and BG120 represent blood glucose values before glucose administration (0 min) and 15, 30, 60, 90, and 120 min after glucose administration, respectively.
The blood glucose decline rate of AUC at each time point was calculated according to the average blood glucose value and AUC of blood glucose at each time point.

[2] = tested on: GLP-1R humanized C57BL/6 mice fed with high-fat diet; experiment: Long-term administration: body weight and ingestion of GLP-1R humanized mice fed with high-fat diet; format: in vivo; settings: HFD mice; for Weight (g)-D0 Mean: Day 0 (day of first administration, baseline), 10 mg/kg oral once a day; for Weight (g)-D10 Mean / Eeight (g)-D10 Mean: Day 10, 10 mg/kg oral once a day; for Body weight change(%)-D10 Mean: Day 10 versus Day 0, 10 mg/kg oral once a day
Source text: The purpose of this test is to evaluate the effects of long-term administration of the compound on the body weight and ingestion of GLP-1R humanized C57BL/6 mice fed with high-fat diet.
C57BL/6_hGLP-1R, male, 5-8 weeks; 60% high-fat diet (HFD); Ultra-clean workbench; Electronic balance.
3.1 On the day of feeding with high-fat diet, C57BL/6 mice were randomly divided into two groups according to their weight. The first group was Blank, with 7 mice fed with normal control diet, while the remaining animals were in the modeling group, fed with high-fat diet, and continued until the end of the experiment.
3.2 At the 8th week of HFD feeding, the modeling group animals were randomly divided with 7 animals per group according to their weight. The first group was the Vehicle group (Vehicle: 0.5% CMC Na+1% Tween 80), which was given vehicle; The remaining group was the administration group; Administration regimen: Oral administration of the corresponding compound, administration cycle was 14 days, once a day for 14 days, with an administration dose of 10 mg/kg and an administration volume of 10 mL/kg. The Blank group continued to be fed with normal diet without any administration operation.
3.3 The day of administration was defined as Day 0.
3.4 During each administration, animals were weighed and data was recorded. Oral administration is performed according to body weight, with an administration volume of 10 mL/kg.
3.5 Starting from Day 0 of the experiment, the food intake of each group of mice was measured once every three days. Specifically, the feed was changed after each weighing and administration, and the added and remaining amounts were recorded.
3.6 On the end day of Day 14, all mice were euthanized sequentially according to grouping order, and the livers were dissected and weighed.
The weight and weight change rate of mice after administration were summarize and statistically analyzed. Weight change rate calculation: (BWt−BW0)/BW0×100%. BWt represents the weight of the mice on Day t of the experiment, and BW0 represents the weight of the mice on Day 0 of the experiment.
Calculation of food intake: (added amount (g)−remaining amount (g))/number of animals per cage, cumulative food intake is the sum of daily food intake of each animal during the administration period.
Experimental data were analyzed using GraphPad Prism software. The t-test method was used for comparison between the two groups. The one-way ANOVA method was used for comparisons between three or more groups.

[3] = Pharmacokinetic assay of SD rats; format: in vivo; settings: Sprague-Dawley, rat, po; male SD rats, plasma, dose 50 mg/kg (b1219 prints 5 mg/kg)
Experimental: SD rats were used as test animals. The pharmacokinetic behavior of the following example compounds was studied in the plasma of rats administered orally at a dose of 50 mg/kg.
Vehicle formula: 0.5% CMC-Na (1% Tween 80);
Three SD rats per group, male. […]
Before and after administration, 0.2 mL of blood was collected from the jugular vein at 0, 0.25, 0.5, 1, 2, 4, 6, 8 and 24 hours, placed in EDTA-K2 tubes, centrifuged at 6000 rpm at 4° C. for 6 min to separate the plasma. The plasma samples were stored at −80° C. The […] was fed 4 hours after the administration.
• 1) 160 μL of acetonitrile was added to 40 μL of the plasma sample for precipitation, and then the mixture was centrifuged at 3500×g for 5-20 min. • 2) After the above process, 100 μL of the supernatant was taken to analyze the concentration of the test compound by LC/MS/MS.
• Liquid chromatography condition: Shimadzu LC-20AD pump Mass spectrometry condition: AB Sciex API 4000 mass spectrometer Chromatographic column: phenomenex Gemiu 5 μm C18 50×4.6 mm • Mobile phase: Eluent A was 0.1% formic acid in water, and Eluent B was methanol • Flow rate: 1.0 mL/min • Elution time: 0-4.0 minutes, the eluent is as follows:
The main pharmacokinetic parameters were calculated using WinNonlin 8.2.

[4] = early clinical practice; cited from earlier work

T1 sequence (P43220 24-463): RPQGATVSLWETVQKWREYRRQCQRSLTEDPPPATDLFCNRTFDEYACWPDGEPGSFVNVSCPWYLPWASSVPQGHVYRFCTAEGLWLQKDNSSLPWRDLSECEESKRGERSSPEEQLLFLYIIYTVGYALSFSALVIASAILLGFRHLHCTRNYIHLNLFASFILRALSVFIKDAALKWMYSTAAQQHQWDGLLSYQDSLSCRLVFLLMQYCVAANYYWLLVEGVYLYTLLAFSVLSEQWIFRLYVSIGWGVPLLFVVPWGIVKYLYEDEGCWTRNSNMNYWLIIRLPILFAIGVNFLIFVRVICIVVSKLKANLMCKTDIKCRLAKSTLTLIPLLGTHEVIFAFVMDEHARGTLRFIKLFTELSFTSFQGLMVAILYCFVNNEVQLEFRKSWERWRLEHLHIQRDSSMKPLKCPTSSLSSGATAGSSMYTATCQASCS

SMILES | EC50 (human GLP-1 receptor) [nM] | Blood glucose decline rate of AUC % [1] [%] | Weight (g)-D0 Mean ([2]; the 3rd table) [g] | Weight (g)-D10 Mean ([2]; the 3rd table) [g] | Body weight change(%)-D10 Mean ([2]; the 3rd table) [%] | Weight (g)-D0 Mean ([2]; the 4th table) [g] | Eeight (g)-D10 Mean ([2]; the 4th table) [g] | Body weight change(%)-D10 Mean ([2]; the 4th table) [%] | AUC(0-inf) [3] [ng·h/mL] | AUC(0-t) [3] [ng·h/mL] | Cmax [3] [ng/mL] | Tmax [3] [h] | half-life [3] [h] | hypoglycemic and weight reducing effects [4]
[2H]C([2H])([2H])Oc1cc(Cl)ccc1[C@@]1([2H])C=C(F)c2cccc(C3CCN(Cc4nc5ccc(C(=O)O)nc5n4C[C@@H]4CCO4)CC3)c2O1 [Example 41, 2-((4-((R)-2-(4-Chloro-2-(methoxy-d3)phenyl)-4-fluoro-2H-chromen-8-yl-2-d)piperidin-1-yl)methyl)-3-(((S)-oxetan-2-yl)methyl)-3H-imidazolo[4,5-b]pyridine-5-carboxylic acid] | 0.04 | 53.09 | 28.54 | 26.20 | −8.19 | – | – | – | – | – | – | – | – | –
[2H][C@]1(c2ccc(Cl)cc2F)C=Cc2cccc(C3CCN(Cc4nc5ccc(C(=O)O)nc5n4C[C@@H]4CCO4)CC3)c2O1 [Example 42, 2-((4-((R)-2-(4-Chloro-2-fluorophenyl)-2H-chromen-8-yl-2-d)piperidin-1-yl)methyl)-3-(((S)-oxetan-2-yl)methyl)-3H-imidazolo[4,5-b]pyridine-5-carboxylic acid] | 0.07 | 56.79 | 28.54 | 26.04 | −8.75 | – | – | – | – | – | – | – | – | –
[2H]C([2H])([2H])Oc1cc(Cl)ccc1[C@@]1([2H])C=Cc2cccc(C3CCN(Cc4nc5ccc(C(=O)O)nc5n4C[C@@H]4CCO4)CC3)c2O1 [Example 43, 2-((4-((R)-2-(4-Chloro-2-(methoxy-d3)phenyl)-2H-chromen-8-yl-2-d)piperidin-1-yl)methyl)-3-(((S)-oxetan-2-yl)methyl)-3H-imidazolo[4,5-b]pyridine-5-carboxylic acid] | 0.05 | 46.57 | – | – | – | 28.37 | 26.57 | −6.37 | – | – | – | – | – | –
O=C(O)c1ccc2nc(CN3CCC(c4cccc5c4O[C@@H](c4ccc(Cl)cc4F)C=C5)CC3)n(C[C@@H]3CCO3)c2n1 [Example 48, 2-((4-((R)-2-(4-Chloro-2-fluorophenyl)-2H-chromen-8-yl)piperidin-1-yl)methyl)-3-(((S)-oxetan-2-yl)methyl)-3H-imidazolo[4,5-b]pyridine-5-carboxylic acid] | 0.03 | 62.89 | – | – | – | 28.23 | 25.85 | −8.44 | 19100 | 19100 | 6400 | 2 | 3.8 | –
N#Cc1ccc(COc2cccc(C3CCN(Cc4nc5ccc(C(=O)O)cc5n4C[C@@H]4CCO4)CC3)n2)c(F)c1 [PF-06882961] | – | – | – | – | – | – | – | – | – | – | – | – | – | significant hypoglycemic and weight reducing effects
